Assay results taken from patent US8933028B2, “Use of selective estrogen receptor modulator for joint fusion and other repair or healing of connective tissue” (priority 2010, dated 2015).
“Also recorded” adds a separate entry of the source.

Assays:
endogenous BMP-2 = conditions: primarily on the α-estrogen receptor; cited from earlier work
fracture healing = conditions: primates; cited from earlier work
[1] = cited from earlier work
osteoblastic cells = conditions: cited from earlier work
sacroiliac joint = assay: Effect of oral raloxifene on bone healing after sacroiliac joint fusion with BMP-2; format: in vivo, human
Description: The patients involved in the study were female at age of over 60 years old.

bone = conditions: postmenopausal women, compared with estrogen; cited from earlier work
tendon to bone healing = conditions: rat model; cited from earlier work
[2] = raloxifene therapy for osteoporosis

Molecule: estrogen
- effect on endogenous BMP-2 (potentiation / secretion) (endogenous BMP-2): direct measurable effect

Molecule: FGF-2: fibroblast growth factor-2, likely potent bone anabolic agent
- fracture healing (fracture healing): accelerates fracture healing and prevents nonunion

Molecule: O=C(c1ccc(OCCN2CCCCC2)cc1)c1c(-c2ccc(O)cc2)sc2cc(O)ccc12 [raloxifene]
- stimulation of the uterus or breasts [1, 2]: does not stimulate
- tolerability [1, 2]: well tolerated
- occurrence of uterine bleeding, thrombophlebitis, breast abnormalities, or increased endometrial thickness ([1]; raloxifene treated groups versus control): no differences among groups
- effect on endogenous BMP-2 (potentiation / secretion) (endogenous BMP-2): similar
- effect on TNF-α induced apoptosis (osteoblastic cells): anti-apoptotic effect
- bone healing or bone graft incorporation versus raloxifene immediately following surgery (sacroiliac joint; delayed raloxifene administration): not as complete
- recovery versus control patients with BMP-2 only (sacroiliac joint; delayed raloxifene administration, some patients): superior recovery results
- bone healing / maturity of bone (sacroiliac joint; females over 60, raloxifene 60 mg/day orally for three months after surgery, BMP-2 at surgery in all patients): Significant improvement
- bone graft incorporation into host bone (images) (sacroiliac joint; females over 60, three months after surgery, BMP-2 at surgery in all patients, FIGS. 5-7): improved incorporation; also recorded: fully healed and incorporated
- fusion result compared with patient who received BMP-2 without raloxifene (sacroiliac joint; postmenopausal women, local BMP-2 and oral raloxifene, three months): better than normal healing
- activation frequency, bone formation rate or bone volume (bone): did not decrease

B1: rhPTH: Recombinant Human Parathyroid Hormone (protein, UniProt P01270 32-115, looked up)
Parathyroid hormone: SVSEIQLMHNLGKHLNSMERVEWLRKKLQDVHNFVALGAPLAPRDAGSQRPRKKEDNVLVESHEKSLGEADKADVNVLTKAKSQ
modifications: Parathyroid hormone
- tendon repair and tendon qualities (tendon to bone healing): improved
